What was measured:
C2C12 myotube cells [1] = experiment: Cell viability of C2C12 myotube cells with dexamethasone-induced myoatrophy; format: cell-based, mouse; settings: for viability of myotube cells reduced by dexamethasone treatment, by isolated compounds: each compound at 20 uM, FIG. 13
Procedure: Cell culture and differentiation of myoblasts: C2C12 mouse (CRL1772; American type cell collection, USA)-derived myoblasts were cultured in Dulbecco's Modified Eagle's Medium (DMEM) medium supplemented with 10 (v/v) % FBS, and after reaching 90% confluence, they were transferred to DMEM medium containing 2 (v/v) % horse serum and cultured for 7 days to differentiate into myotube cells.
After differentiating C2C12 myoblasts into myotube cells, myoatrophy was induced by treatment with 100 µM of Dexamethasone for 24 hours, and then the myoatrophy-induced myotube cells were treated with Ponciri Fructus extract (PT) at concentrations of 5, 10, and 20 ug/ml, respectively, to determine the effect of alleviating myoatrophy.
The effect of each fraction (concentrations 5 ug/ml, 10 ug/ml, 20 ug/ml, 40 ug/ml) prepared according to Example 2 on the viability of […] in which myoatrophy was induced by dexamethasone was analyzed. The assay was performed in the same manner as in Example 1.
The effect of the compounds isolated according to Example 3 (each at a concentration of 20 uM) on the viability of myotube cells in which myoatrophy was induced by dexamethasone was analyzed. The assay was performed in the same manner as in Example 1.
The assay was performed in the same manner as in Example 1.

C2C12 myotube cells [2] = experiment: RT-qPCR of myotube cell differentiation and exercise performance-related gene expression in dexamethasone-treated C2C12 myotube cells; format: cell-based, mouse; settings: auraptene treatment after dexamethasone
Procedure: C2C12 mouse-derived […] treated with dexamethasone 10 µM were washed twice with PBS, and total RNA was extracted according to the user-recommended protocol of an RNA extraction kit (GeneAll RNA isolation kit, Seoul, South Korea). cDNA was synthesized from the extracted RNA and subjected to real time-quantitative polymerase chain reaction (RT-qPCR). PCR analysis was performed according to the user-recommended cycling conditions of analyzer (Applied Biosystems 7900 HT thermal cycler, Applied Biosystems), and to determine the expression level of each mRNA, fold change values were calculated relative to the control, using beta-actin as an endogeneous control, and relative expression amounts were compared. The primer sequences are as follows Myf5 forward primer: TCCAGGTATTCCCACCTGCT (sequence 1), Myf5 reverse primer: CACCTGGAGCGGATGAAGAAGAAC (sequence 2); Myf6 forward primer: ACAGATCGTCGGAAAGCAGC (sequence 3), Myf6 reverse primer: CACTCCGCAGAATCTCCACC (sequence 4); Myod forward primer: CATAGACTTGACAGGCCCCG (sequence 5), Myod reverse primer: CGGGTCCAGGTCCTCAAAAA (sequence 6); Myog forward primer: AGCTATCCGGTTCCAAAGCC (sequence 7), Myog reverse primer: GCACAGGAGACCTTGGTCAG (sequence 8); Ppard forward primer: GTATGCGCATGGGACTCACT (sequence 9), Ppard reverse primer: ACTGCCTTTACCGTGGGTTT (SEQ ID NO: 10); Ppargcla forward primer: GTTGCCTGCATGAGTGTGTG (SEQ ID NO: 11), Ppargc1a reverse primer: CACATGTCCCAAGCCATCCA (SEQ ID NO: 12). As a result, the gene expressions of Myf5, Myf6, Myod and Myog, markers of myotube cell differentiation, which were decreased by dexamethasone treatment, were increased by Ponciri Fructus extract treatment, and the gene expressions of Ppard and Pgc1a, markers of motor performance, were increased by Ponciri Fructus extract treatment, as shown in FIGS. 2 and 3.
The effect of auraptene on promoting myotube cell differentiation and exercise performance-related gene expression in C2C12 myotube cells with dexamethasone-induced myoatrophy was analyzed. The assay was performed using the same method as in Example 2.

myotube cells = experiment: Diameter analysis of myotube cells with dexamethasone-induced myoatrophy; format: cell-based, mouse; settings: auraptene 5, 10, 20 uM; dexamethasone 100 uM; FIG. 15
Procedure: The effect of auraptene (5 uM, 10 uM, 20 uM) on the diameter of myotube cells in which myoatrophy was induced by dexamethasone (100 uM) was analyzed. The results confirmed that the diameter of myotube cells decreased by dexamethasone treatment was restored by auraptene treatment (FIG. 15).

C2C12 myotube cells [3] = experiment: Oxidative stress and mitochondrial function in dexamethasone-treated C2C12 myotube cells; format: cell-based, mouse; settings: 10 μM dexamethasone 24 hours, then auraptene; FIG. 18
Procedure: C2C12 myoblasts were differentiated into myotube cells as in Example 1, and then treated with 10 μM dexamethasone for 24 hours to induce oxidative stress or mitochondrial dysfunction, and then treated with auraptene to determine its efficacy in improving function.

[4] = system: mice with dexamethasone-induced sarcopenia; experiment: Muscle force in mice with dexamethasone-induced sarcopenia; format: in vivo, C57BL/6J mice; settings: 4 weeks
Procedure: (§1) C57BL/6J mice (male, 10 weeks old) were obtained from Doo-yeol Biotech, and after 2 weeks of acclimatization, they were divided into 6 test groups (n=10 per group) according to body weight. The test substance was prepared as a liquid suspension using 0.5% CMC, and the test substance was administered for 4 weeks. To compensate for the placebo effect of 0.5% CMC and the weight loss effect caused by the stress of administration, the vehicle control group was administered 0.5% CMC orally daily. Two weeks after treatment, the experimental group received an intraperitoneal injection of dexamethasone for 2 weeks to induce sarcopenia, while the normal control group received an intraperitoneal injection of saline. All mice were fed the same AIN76 diet (Research Diets) and treated with the test compound for an additional 2 weeks for a total of 4 weeks. The dark:light cycle was maintained at a 12 hr:12 hr interval and water was allowed ad libitum.
The changes in muscle force in mice were determined by the same method as in Example 3 above.

[5] = system: mice with dexamethasone-induced sarcopenia; experiment: Weight by muscle types in mice with dexamethasone-induced sarcopenia; format: in vivo, C57BL/6J mice
Procedure: as §1
At the end of a total of 4 weeks of Ponciri Fructus extract administration in Example 3 above, the weight of each type of muscle tissue in all treatment groups was determined.
After a total of 4 weeks of Auraptene administration, the weight of each type of muscle tissue in all treatment groups was determined in Example 8-5 above.

[6] = auraptene 10, 50 mg/kg, 4 weeks, vs dexamethasone-treated group, FIG. 20

CC(C)=CCC/C(C)=C/COc1ccc2ccc(=O)oc2c1 [Compound 2, Auraptene]
viability of myotube cells reduced by dexamethasone treatment, auraptene by concentration (C2C12 myotube cells [1]; 5 uM, 10 uM, 20 uM, all experimental groups, FIG. 14): restore | viability of myotube cells reduced by dexamethasone treatment, by isolated compounds (C2C12 myotube cells [1]): excellently restore | viability of myotube cells reduced by dexamethasone treatment, by isolated compounds (C2C12 myotube cells [1]; listed as auraptene): best effect | Myf5 gene expression (myotube cell differentiation marker) (C2C12 myotube cells [2]; FIG. 16): increased | Myod1 gene expression (myotube cell differentiation marker) (C2C12 myotube cells [2]; FIG. 16): increased | Myog gene expression (myotube cell differentiation marker) (C2C12 myotube cells [2]; FIG. 16): increased | Nrf1 gene expression (motor performance marker) (C2C12 myotube cells [2]; FIG. 17): increased | Pparg1a gene expression (motor performance marker) (C2C12 myotube cells [2]; FIG. 17): increased | Tomm20 gene expression (motor performance marker) (C2C12 myotube cells [2]; FIG. 17): increased | UCP3 gene expression (motor performance marker) (C2C12 myotube cells [2]; FIG. 17): increased | diameter of myotube cells decreased by dexamethasone treatment (myotube cells): restored | glutathione (GSH) content (C2C12 myotube cells [3]): increased | mitochondrial dysfunction induced by dexamethasone treatment (C2C12 myotube cells [3]): improved | muscle force compared to the dexamethasone-treated group ([4]; auraptene 10, 50 mg/kg oral once daily, Dexamethasone 20 mg/kg 2 weeks, FIG. 19): increased | calf muscle weight [5, 6]: significantly increased | longissimus dorsi muscle weight [5, 6]: significantly increased | soleus muscle weight [5, 6]: significantly increased | thigh muscle weight [5, 6]: significantly increased

O=c1ccc2ccc(O)cc2o1 [Compound 3, Umbelliferone]
viability of myotube cells reduced by dexamethasone treatment, by isolated compounds (C2C12 myotube cells [1]): excellently restore

CC(C)C(=O)Cc1c(OCC2OC2(C)C)ccc2ccc(=O)oc12 (stereo not shown) [Compound 9, Isoponcimarin]
viability of myotube cells reduced by dexamethasone treatment, by isolated compounds (C2C12 myotube cells [1]): excellently restore

C/C(=C\COc1ccc2ccc(=O)oc2c1)C/C=C/C(C)(C)OO [Compound 12, 7-O-(7′-peroxygeranyl)coumarin]
viability of myotube cells reduced by dexamethasone treatment, by isolated compounds (C2C12 myotube cells [1]): excellently restore

C[C@]12C/C(=C/O)C(=O)C[C@@H]1CC[C@@H]1[C@@H]2CC[C@@]2(C)[C@H]1CC[C@]2(C)O [Oxymetholone, reference compound]
muscle force compared to the group treated with Dexamethasone alone ([4]; oral once daily, PT 10, 50, 100 mg/kg, Oxymetholone 50 mg/kg, Dexamethasone 20 mg/kg i.p. 2 weeks, FIGS. 4 and 5): increased | weight of quadriceps muscle ([5]; after 4 weeks, PT 10, 50, 100 mg/kg, Oxymetholone 50 mg/kg, vs Dexamethasone group, FIG. 6): significantly increased | weight of gastrocnemius muscle ([5]; after 4 weeks, PT 10, 50, 100 mg/kg, Oxymetholone 50 mg/kg, vs Dexamethasone group, FIG. 7): significantly increased | weight of tibialis muscle ([5]; after 4 weeks, PT 10, 50, 100 mg/kg, Oxymetholone 50 mg/kg, vs Dexamethasone group, FIG. 8): significantly increased
